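Interpolation was linear, between the two tested concentrations surrounding the appropriate level; five concentrations were tested over 48 hours in 96-well plates. GI50: concentration for 50% inhibition of growth.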 The source made the active and inactive calls. Rule as the data show it: active = GI50 up to about 1.1 µM and inactive = higher.
Key:
Test in all cases: NCI anticancer screen, dose series, 48 h
[1] = test system: HOP-62
[2] = test system: SK-MEL-28
[3] = test system: MCF7
[4] = test system: HOP-92
[5] = test system: TK-10
[6] = test system: OVCAR-3
[7] = test system: SR
[8] = test system: NCI-H23
[9] = test system: DU-145
[10] = test system: SF-268
[11] = test system: OVCAR-4
[12] = test system: U-251
[13] = test system: LOX IMVI
[14] = test system: Malme-3M
[15] = test system: HL-60
[16] = test system: ACHN
[17] = test system: A549
[18] = test system: HT-29
[19] = test system: SNB-75
[20] = test system: MOLT-4
[21] = test system: MDA-MB-435
[22] = test system: SF-295
[23] = test system: UACC-257
[24] = test system: HCC 2998
[25] = test system: NCI-H226
[26] = test system: NCI-H460
[27] = test system: SNB-19
[28] = test system: MDA-N
[29] = test system: OVCAR-5
[30] = test system: 786-0
[31] = test system: SK-MEL-5
[32] = test system: CAKI-1
[33] = test system: HCT-116
[34] = test system: PC-3
[35] = test system: IGROV-1
[36] = test system: UACC-62
[37] = test system: K562
[38] = test system: COLO 205
[39] = test system: KM12
[40] = test system: SK-MEL-2
[41] = test system: RPMI-8226
[42] = test system: MDA-MB-231
[43] = test system: CCRF-CEM
[44] = test system: BT-549
[45] = test system: NCI/ADR-RES
[46] = test system: T47D
[47] = test system: NCI-H522
[48] = test system: Hs-578T
[49] = test system: M14
[50] = test system: SK-OV-3
[51] = test system: EKVX
[52] = test system: SN12C
[53] = test system: OVCAR-8
[54] = test system: HCT-15
[55] = test system: UO-31
[56] = test system: RXF 393
[57] = test system: SW-620
[58] = test system: A498
[59] = test system: SF-539

Measured: GI50

COc1ccc2c(c1O)[C@@]13C=C(O)C(=O)C=C1[C@@H](C2)N(C)CC3
inactive: [1] 49.4 µM | [2] 87.7 µM | [3] 65.2 µM | [4] 53.2 µM | [5] > 100 µM | [6] 26.9 µM | [7] 42.7 µM | [8] 57.4 µM | [9] 56.9 µM | [10] 28.6 µM | [11] 62.4 µM | [12] 86.1 µM | [13] 31.6 µM | [14] 72.6 µM | [15] 46.1 µM | [16] 43.6 µM | [17] > 100 µM | [18] 31.6 µM | [19] 54 µM | [20] 36.1 µM | [21] 40.6 µM | [22] > 100 µM | [23] 43 µM | [24] > 100 µM | [25] 56.9 µM | [26] 63.4 µM | [27] 63.1 µM | [28] 47 µM | [29] > 100 µM | [30] 75 µM | [31] 60.3 µM | [32] 88.5 µM | [33] 34.1 µM | [34] 34.8 µM | [35] 61.1 µM | [36] > 100 µM | [37] > 100 µM | [38] > 100 µM | [39] 52.1 µM | [40] 47.9 µM | [41] > 100 µM | [42] > 100 µM | [43] 43.8 µM | [44] > 100 µM | [45] 51.9 µM | [46] 63.4 µM | [47] 28.8 µM | [48] 59.3 µM | [49] 62.2 µM | [50] > 100 µM | [51] > 100 µM | [52] 50 µM | [53] 51.9 µM | [55] 51.9 µM | [56] 48.1 µM
68.7 µM: [54]

CCOP(=O)(OCC)/C(=C/c1cccs1)CC(C)=O
inactive: [1] > 100 µM | [2] > 100 µM | [3] > 100 µM | [4] > 100 µM | [5] > 100 µM | [6] > 100 µM | [8] > 100 µM | [9] > 100 µM | [10] > 100 µM | [11] > 100 µM | [12] > 100 µM | [13] > 100 µM | [14] > 100 µM | [16] > 100 µM | [17] > 100 µM | [18] > 100 µM | [19] > 100 µM | [20] 9.71 µM | [21] > 100 µM | [22] > 100 µM | [23] > 100 µM | [24] > 100 µM | [25] > 100 µM | [26] > 100 µM | [27] > 100 µM | [28] > 100 µM | [29] > 100 µM | [30] > 100 µM | [31] > 100 µM | [32] > 100 µM | [33] > 100 µM | [34] > 100 µM | [35] > 100 µM | [36] > 100 µM | [57] > 100 µM | [37] > 100 µM | [38] > 100 µM | [39] > 100 µM | [40] > 100 µM | [42] > 100 µM | [43] > 100 µM | [44] > 100 µM | [45] > 100 µM | [46] 73.8 µM | [58] 75.3 µM | [48] > 100 µM | [49] > 100 µM | [50] > 100 µM | [59] > 100 µM | [51] > 100 µM | [52] > 100 µM | [53] > 100 µM | [55] > 100 µM | [56] > 100 µM
> 100 µM: [54]

N=C(N)NS(=O)(=O)c1ccc(/N=N/c2c(O)c(C(=O)O)cc3ccccc23)cc1
> 100 µM: [54]
inactive: [1] > 100 µM | [2] > 100 µM | [3] > 100 µM | [4] > 100 µM | [5] > 100 µM | [6] > 100 µM | [7] > 100 µM | [8] > 100 µM | [9] > 100 µM | [10] > 100 µM | [11] > 100 µM | [12] > 100 µM | [14] > 100 µM | [15] > 100 µM | [16] > 100 µM | [17] > 100 µM | [18] > 100 µM | [19] > 100 µM | [20] > 100 µM | [21] > 100 µM | [22] > 100 µM | [23] > 100 µM | [24] > 100 µM | [25] > 100 µM | [26] > 100 µM | [28] > 100 µM | [29] > 100 µM | [30] > 100 µM | [31] > 100 µM | [32] > 100 µM | [33] > 100 µM | [34] > 100 µM | [35] > 100 µM | [36] > 100 µM | [57] > 100 µM | [37] > 100 µM | [38] > 100 µM | [39] > 100 µM | [40] > 100 µM | [41] > 100 µM | [42] 47.4 µM | [43] > 100 µM | [44] > 100 µM | [45] > 100 µM | [46] > 100 µM | [47] > 100 µM | [48] > 100 µM | [49] > 100 µM | [50] > 100 µM | [59] > 100 µM | [51] > 100 µM | [52] > 100 µM | [53] > 100 µM | [55] > 100 µM | [56] > 100 µM

Source: ChEMBL document CHEMBL1201862, “PubChem BioAssay data set” (2004)
